# From US6497862B2, “Composition for inhibiting body odor and uses thereof” (Kabushiki Kaisha Hayashibara, priority 2000, dated 2002)
# How the values were obtained:
# [1] = Formation of 2-nonenal from 9-hexadecanoic acid by heating, GC of HSG (Experiment 3); settings: 9-hexadecanoic acid + 100 mg test saccharide, heated at 105° C. for one hour; control 25.7
# Method: (§1) One hundred milligrams of oleic acid as a fatty acid, 500 mg of cellulose powder, and 1.25 ml of 0.12 M phosphate buffer (pH 6.0) were placed in a 20-ml glass vial. To the glass vial were added 100 mg of either of crystalline trehalose hydrate, crystalline maltitol anhydride, crystalline sorbitol anhydride, crystalline sucrose anhydride, crystalline maltose anhydride, and crystalline neotrehalose hydride as test saccharides (throughout Experiments 1 to 6, these saccharides are designated as “trehalose”, “maltitol”, sorbitol”, “sucrose”, “maltose”, and “neotrehalose”, respectively), followed by sealing the glass vial with a butyl rubber. As a control system, there provided a glass vial, with no a test saccharide, which differed from the test glass vial on this point. These glass vials were heated at 105° C. for one hour, cooled to ambient temperature, and kept in an aluminum heat-block (abbreviated as “heat block, hereinafter”), which had been preheated to 80° C. After 5-minutes standing, two milliliters of a head space gas (abbreviated as “HSG”, hereinafter) were collected from each glass vial with a syringe.
# (§2) The collected HSG was analyzed for content of volatile aldehydes on gas chromatography (abbreviated as “GC” hereinafter) using “GAS CHROMATOGRAPH GC-14A”, as a GC apparatus; “CAPILLARY COLUMN SUPELCO-WAX”, having 0.25 mm in inner diameter, 60 m in length, and 0.25 μm in thickness, commercialized by Supelco Inc., Tokyo, Japan, as a column for analysis; helium gas at a flow rate of one ml/min as a carrier gas, under temperature conditions of 250° C. for injecting a sample and of a column thermostatic bath temperature being kept at 80° C. for five minutes and then increased up to 240° C. at a rate of 5° C./min. As standard specimens, propanal, butanal, and hexanal as volatile aldehydes were used. Based on the peak area obtained from gas chromatography for the standard specimens and HSG samples, the content of respective volatile aldehydes in HSG was calculated.
# (§3) The content of 2-nonenal in HSG was measured by GC similarly as in Experiment 1 except that 9-hexadecanoic acid or palmitoleic acid was used as a fatty acid and 2-nonenal, a volatile aldehyde, was used as a standard substance. The level of body-odor-like smell, particularly with respect to KAREI-SHU, in each sample was evaluated by panel test in accordance with the method in Experiment 1.
# [2] = Formation of volatile aldehydes from oleic acid by heating, GC analysis of head space gas (Experiment 1); settings: oleic acid 100 mg + 100 mg test saccharide, heated at 105° C. for one hour; for Content in HSG, Hexanal: control 0.08; for Content in HSG, Butanal: control 1.04; for Content in HSG, Propanal: control 9.41
# Method: as §1, §2
# [3] = Formation of 2-nonenal from linoleic acid by heating, GC of HSG (Experiment 2); settings: linoleic acid + 100 mg test saccharide, heated at 105° C. for one hour; control 5.75
# Method: as §1, §2
# as §3, with “except that linoleic acid was” for “except that 9-hexadecanoic acid or palmitoleic acid was”, “level of a body-odor-like smell,” for “level of body-odor-like smell,”
# [4] = Decomposition of fatty acids by heating, linoleic acid (Experiment 5); settings: heated at 105° C. for one hour with 100 mg test saccharide; control 60.0
# Method: One hundred milligrams of linoleic acid or 9-hexadecanoic acid as a fatty acid, 500 mg of a cellulose powder, and 1.25 ml of 0.12 M phosphate buffer (pH 6.0) were placed in a 20-ml glass vial. To the glass vial was added 100 mg of either of trehalose, maltitol and sucrose as a test saccharide, followed by sealing with a butyl rubber cap. As a control system, there provided a glass vial with no test saccharide that differed from the test systems only in this point. These vials were heated at 105° C. for one hour. Another glass vial with no heat treatment, which contained the same ingredients as shown in the above, was provided that differed from the test systems only in that it had no heat treatment.
# The above test systems with or without heat treatment and the control system were subjected to the following methyl esterification reaction and analyzed on GC to measure the content of fatty acids; To each glass vial was added 20 ml of a mixture solution of chloroform and methanol (=2:1 by volume) to extract fatty acids, and one milliliter of each resulting extract was collected in a 10-ml eggplant-shape flask, concentrated, and dried in vacuo. […]
# Two microliters of each of the resulting n-hexane layers were analyzed on GC using “GAS CHROMATOGRAPH GC-14A”, a GC apparatus, commercialized by Shimadzu Corporation, Tokyo, Japan; and “CAPILLARY COLUMN FFAP”, an analysis column having an inner diameter of 0.25 mm, a length of 30 m, and a membrane thickness of 0.25 μm, commercialized by GL Sciences Inc., Tokyo, Japan, under the conditions of using helium gas as a carrier at a flow rate of 1 ml/min, at a temperature of 250° C. as a sample injection temperature, a column thermostatic bath temperature being kept at 80° C. for five minutes and then increased up to 240° C. at a rate of 5° C./min, and a hydrogen flame ionization detector for detecting fatty acids. Based on the peak area of the obtained gas chromatograms, it was calculated the content of fatty acids, i.e., linoleic acid and 9-hexadecanoic acid, before or after the heat treatment in the test- and control-systems. […]
# [5] = Formation of 2-nonenal from 9-hexadecanoic acid at the temperature of human body, GC of HSG (Experiment 6); settings: 37° C., 9,000 lux
# Method: One hundred milligrams of 9-hexadecanoic acid as a fatty acid, 500 mg of a cellulose powder, and 1.25 ml of 0.12 M phosphate buffer (pH 6.0) were placed in a 20-ml glass vial. To the glass vial was added 100 mg of either of trehalose, maltitol and sucrose as a test saccharide, followed by sealing with a butyl rubber cap for use as a test system. As a control system, there provided a glass vial with no test saccharide that differed from the test systems only in this point. In both the test- and control-systems, they were respectively provided in doublet.
# These glass vials were allowed to stand in a 37° C.-thermostatic-bath under the irradiation of 9,000 lux by a fluorescent lamp. At 3-days of standing, one of each pair of the vials containing the same composition, and 7-days of standing, the other vial of each resting pair of the vials were transferred to a heat block, which had been preheated to 80° C. and then kept therein for five minutes, followed by analyzing the content of 2-nonenal in HSG in each vial by GC similarly as in Experiment 2. After the collection of HSG, the smell from glass vials was evaluated by panel test in accordance with the method in Experiment 2.
# [6] = 3-days of standing, control 0.03
# [7] = 7-days of standing, control 16.8
Structure (SMILES),Content of 2-nonenal in HSG [1] [µg/mL],"Content in HSG, Hexanal [2] [µg/mL]","Content in HSG, Butanal [2] [µg/mL]","Content in HSG, Propanal [2] [µg/mL]",Content of 2-nonenal in HSG [3] [µg/mL],"Decomposition percentage, Linoleic acid [4] [%]","Content of 2-nonenal in HSG [5, 6] [µg/mL]","Content of 2-nonenal in HSG [5, 7] [µg/mL]"
"OC[C@@H](O)[C@@H](O[C@H]1O[C@H](CO)[C@@H](O)[C@H](O)[C@H]1O)[C@H](O)[C@@H](O)CO [Maltitol, maltitol]",6.17,0.03,1.02,4.09,1.73,33.4,0.00,2.77
"OC[C@H]1O[C@@](CO)(O[C@H]2O[C@H](CO)[C@@H](O)[C@H](O)[C@H]2O)[C@@H](O)[C@@H]1O [Sucrose, sucrose]",24.4,0.07,1.11,9.98,5.41,58.0,0.26,16.4
"OC[C@H]1O[C@H](O[C@H]2O[C@H](CO)[C@@H](O)[C@H](O)[C@H]2O)[C@H](O)[C@@H](O)[C@@H]1O [Trehalose, trehalose]",4.10,0.02,0.19,3.47,1.27,25.2,0.00,2.64
